System: 3T3L1-derived differentiated mouse adipocytes
Assay type: cell-based
Protocol: According to the invention 3T3L1-derived differentiated mouse adipocytes can be used as appropriate cell-system. These cells are treated with fractions of human hemofiltrate and identified using a glycerol-estimation method (GPO-Trinder reagent, Sigma, Deisenhofen, Germany) lipolytic activity. […] It was subsequently isolated in several chromatographic steps using reverse-phase and cation-exchange chromatographic material. 3T3L1 cells were obtained from ATCC. They were grown in DMEM with 10% FCS, penicillin, streptomycin, and L-glutamine for proliferation. For differentiation into the mature adipocyte phenotype, the cells were plated onto 96 well plates (Costar) and treated for three days with differentiation medium (DMEM with 10% FCS, dexamethasone, insulin, L-glutamine and 8-Br-cAMP) and subsequently for three to six days with sustainment medium (DMEM with 10% FCS and L-glutamine). Cells differentiated as described above were then treated for five hours with the hemofiltrate fractions diluted in serum-free medium. An aliquot of the cell supernatant was mixed with the glycerol-estimation-solution (GPO-Trinder Reagent, Sigma, Garching, Germany) and incubated for 15 minutes. Then the absorbance was measured at 540 nm in a 96 well plate ELISA reader (Dynex). […] The colored product is measured at 540 nm in a spectrophotometer. […]

SMILES	EC50
CSCC[C@H](NC(=O)[C@H](CCCNC(=N)N)NC(=O)[C@H](Cc1ccc(O)cc1)NC(=O)[C@@H]1CCCN1C(=O)CNC(=O)[C@H](CCC(=O)O)NC(=O)[C@H](CC(=O)O)NC(=O)[C@H](CCCCN)NC(=O)[C@H](CCCCN)NC(=O)[C@H](CCC(=O)O)NC(=O)[C@H](C)NC(=O)[C@H](C)NC(=O)[C@@H](N)C(C)C)C(=O)N[C@@H](CCC(=O)O)C(=O)N[C@@H](Cc1c[nH]cn1)C(=O)N[C@@H](Cc1ccccc1)C(=O)N[C@@H](CCCNC(=N)N)C(=O)N[C@@H](Cc1c[nH]c2ccccc12)C(=O)NCC(=O)N[C@@H](CO)C(=O)N1CCC[C@H]1C(=O)N1CCC[C@H]1C(=O)N[C@@H](CCCCN)C(=O)N[C@@H](CC(=O)O)C(=O)O [vaaekkdegp yrmehfrwgs ppkd]	~0.02 µM
CSCC[C@H](NC(=O)[C@H](CCCNC(=N)N)NC(=O)[C@H](Cc1ccc(O)cc1)NC(=O)[C@@H]1CCCN1C(=O)CNC(=O)[C@H](CCC(=O)O)NC(=O)[C@H](CC(=O)O)NC(=O)[C@H](CCCCN)NC(=O)[C@H](CCCCN)NC(=O)[C@H](CCC(=O)O)NC(=O)[C@H](C)N)C(=O)N[C@@H](CCC(=O)O)C(=O)N[C@@H](Cc1c[nH]cn1)C(=O)N[C@@H](Cc1ccccc1)C(=O)N[C@@H](CCCNC(=N)N)C(=O)N[C@@H](Cc1c[nH]c2ccccc12)C(=O)NCC(=O)N[C@@H](CO)C(=O)N1CCC[C@H]1C(=O)N1CCC[C@H]1C(=O)N[C@@H](CCCCN)C(=O)N[C@@H](CC(=O)O)C(=O)O [β-MSH, aekkdegp yrmehfrwgs ppkd]	~0.02 µM
